Assays:
Mus musculus [1] = assay: Antiinflammatory activity in zymosan-induced peritonitis in sc dosed BALB/c mouse model assessed as decrease in myeloperoxidase activity in peritoneal lavage; assay type: functional
[2] = Terminal volume of distribution in rat at 10 mg/kg, iv; assay type: ADME, organism-based; design: dose 10 mg/kg, route intravenous; details: in vivo, read-out: Vbeta
[3] = Cmax in mouse at 20 mg/kg, po; assay type: ADME, organism-based; design: dose 20 mg/kg, route oral; details: in vivo
[4] = Bioavailability in rat at 10 mg/kg, po; assay type: ADME, organism-based; details: in vivo
[5] = Bioavailability in mouse at 20 mg/kg, po; assay type: ADME, organism-based; details: in vivo
Rattus norvegicus [6] = assay: Antiinflammatory activity against carrageenan-induced thermal hyperalgesia in rat assessed as increase in paw withdrawal at 100 umol/kg, ip relative to control; assay type: functional
Rattus norvegicus [7] = assay: Plasma concentration in rat at 300 umol/kg, ip; assay type: ADME, organism-based; details: in vivo
Rattus norvegicus [8] = assay: Plasma concentration in rat at 30 umol/kg, ip; assay type: ADME, organism-based; details: in vivo
[9] = Half life in rat at 10 mg/kg, iv; assay type: ADME, organism-based; design: dose 10 mg/kg, route intravenous; details: in vivo
[10] = Plasma concentration in mouse at 25 umol/kg, ip after 30 mins; assay type: ADME, organism-based
[11] = Half life in rat at 10 mg/kg, po; assay type: ADME, organism-based; design: dose 10 mg/kg, route oral; details: in vivo
[12] = Cmax in mouse at 5 mg/kg, iv; assay type: ADME, organism-based; design: dose 5 mg/kg, route intravenous; details: in vivo
[13] = Cmax in rat at 10 mg/kg, po; assay type: ADME, organism-based; design: dose 10 mg/kg, route oral; details: in vivo
Rattus norvegicus [14] = assay: Plasma concentration in rat at 100 umol/kg, ip; assay type: ADME, organism-based; details: in vivo
[15] = Cmax in rat at 10 mg/kg, iv; assay type: ADME, organism-based; design: dose 10 mg/kg, route intravenous; details: in vivo
[16] = Tmax in rat at 10 mg/kg, po; assay type: ADME, organism-based; design: dose 10 mg/kg, route oral; details: in vivo
[17] = Tmax in mouse at 20 mg/kg, po; assay type: ADME, organism-based; design: dose 20 mg/kg, route oral; details: in vivo
[18] = Half life in mouse at 5 mg/kg, iv; assay type: ADME, organism-based; design: dose 5 mg/kg, route intravenous; details: in vivo
Rattus norvegicus [19] = assay: Antiinflammatory activity against carrageenan-induced thermal hyperalgesia in ip dosed rat assessed as increase in paw withdrawal; assay type: functional
Rattus norvegicus [20] = assay: Antiinflammatory activity against carrageenan-induced hyperalgesia in rat assessed as increase in paw withdrawal at 300 umol/kg, ip relative to control; assay type: functional
[21] = Half life in mouse at 20 mg/kg, po; assay type: ADME, organism-based; design: dose 20 mg/kg, route oral; details: in vivo
[22] = Protein binding in ip dosed rat plasma; assay type: ADME, organism-based; details: read-out: PPB (converted)
Histamine H3 receptor = Histamine H3 receptor (Homo sapiens, UniProt Q9Y5N1); assay: Binding affinity to human histamine H3 receptor
Sequence of Histamine H3 receptor (Q9Y5N1 whole entry): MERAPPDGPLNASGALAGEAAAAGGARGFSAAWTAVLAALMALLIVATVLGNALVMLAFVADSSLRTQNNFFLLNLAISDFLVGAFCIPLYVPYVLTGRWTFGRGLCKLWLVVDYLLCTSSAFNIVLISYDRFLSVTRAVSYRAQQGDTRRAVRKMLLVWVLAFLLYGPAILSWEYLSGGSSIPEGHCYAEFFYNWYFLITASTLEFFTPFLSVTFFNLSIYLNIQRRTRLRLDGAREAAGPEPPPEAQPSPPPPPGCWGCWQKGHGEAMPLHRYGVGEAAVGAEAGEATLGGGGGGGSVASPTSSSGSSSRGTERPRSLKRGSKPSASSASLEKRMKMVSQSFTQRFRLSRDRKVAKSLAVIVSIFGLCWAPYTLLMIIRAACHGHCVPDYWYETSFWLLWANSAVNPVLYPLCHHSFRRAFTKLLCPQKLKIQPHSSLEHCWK

[23] = Terminal volume of distribution in mouse at 5 mg/kg, iv; assay type: ADME, organism-based; design: dose 5 mg/kg, route intravenous; details: in vivo, read-out: Vbeta
Rattus norvegicus [24] = assay: Plasma concentration in rat at 80 umol/kg, ip; assay type: ADME, organism-based; details: in vivo
Mus musculus [25] = assay: Antiinflammatory activity in ip dosed CD1/ICR mouse assessed as reduction of clobenpropit-induced itching; assay type: functional

Q: What does the source list for `CN1CCN(C(=O)c2cc3cc(Cl)ccc3[nH]2)CC1` [JNJ-7777120]?
A: ED50 (Mus musculus [1]): 61 µmol/kg; Vd [2]: 37 L/kg; Cmax [3]: 140 ng/mL; bioavailability [4]: 47%; bioavailability [5]: 24%; Activity (Rattus norvegicus [6]): 49%; Cp (Rattus norvegicus [7]): 4135 ng/mL; Cp (Rattus norvegicus [8]): 432 ng/mL; half-life [9]: 1.7 h; concentration at 0.5 h [10]: 860 ng/mL; half-life [11]: 2.5 h; Cmax [12]: 560 ng/mL; Cmax [13]: 220 ng/mL; Cp (Rattus norvegicus [14]): 1454 ng/mL; Cmax [15]: 1140 ng/mL; Tmax [16]: 0.25 h; Tmax [17]: 1.33 h; half-life [18]: 0.7 h; ED50 (Rattus norvegicus [19]): 80 µmol/kg; Activity (Rattus norvegicus [20]): 96%; half-life [21]: 1.4 h; fraction unbound [22]: 0.28; Ki (Histamine H3 receptor): 2240 nM; Vd [23]: 24 L/kg; Cp (Rattus norvegicus [24]): 1200 ng/mL; ED50 (Mus musculus [25]): 25 µmol/kg

Reference: ChEMBL document CHEMBL1140148, “Structure-activity studies on a series of a 2-aminopyrimidine-containing histamine H4 receptor ligands” (J Med Chem, 2008)
